From US7115624B1, “Method of inhibiting protein tyrosine phosphatase 1B and/or T-cell protein tyrosine phosphatase 4 and/or other PTPases with an Asp residue at position 48” (Novo Nordisk A/S, priority 1999, dated 2006)
Read-outs that look alike come from different tables or passages of the source.

Assays:
PTPε = target: T1, PTPε (Homo sapiens, UniProt P23469); assay: PTPase inhibition, p-nitrophenyl phosphate substrate, Ki; format: biochemical
T1 construct: PTPε D1
Experimental: (§1) The assay conditions are as follows. Appropriate concentrations of the compounds of the invention (e.g., 0.1 to 100 μM) are added to the reaction mixtures containing different concentrations of the substrate, p-nitrophenyl phosphate (range: 0.16 to 10 mM—final assay concentration). The buffer used was 50 mM HEPES pH 7.0, 100 mM sodium chloride, 0.1% (w/v) bovine serum albumin, 5 mM glutathione, and 1 mM EDTA. The reaction was started by addition of the enzyme and carried out in microtiter plates at 25° C. for 60 minutes. The reactions are stopped by addition of NaOH. […] The data are analyzed using nonlinear regression fit to classical Michaelis Menten enzyme kinetic models. Inhibition is expressed as Ki values in μM.

PTPβ = PTPβ (Homo sapiens, UniProt P23467); assay: as above; format: biochemical
Experimental: as §1

CD45 = target: T2, CD45 (Homo sapiens, UniProt P08575); assay: as above; format: biochemical; conditions: read-out: Ki values, CD45 D1D2
T2 sequence (P08575 599-1306 limits assumed): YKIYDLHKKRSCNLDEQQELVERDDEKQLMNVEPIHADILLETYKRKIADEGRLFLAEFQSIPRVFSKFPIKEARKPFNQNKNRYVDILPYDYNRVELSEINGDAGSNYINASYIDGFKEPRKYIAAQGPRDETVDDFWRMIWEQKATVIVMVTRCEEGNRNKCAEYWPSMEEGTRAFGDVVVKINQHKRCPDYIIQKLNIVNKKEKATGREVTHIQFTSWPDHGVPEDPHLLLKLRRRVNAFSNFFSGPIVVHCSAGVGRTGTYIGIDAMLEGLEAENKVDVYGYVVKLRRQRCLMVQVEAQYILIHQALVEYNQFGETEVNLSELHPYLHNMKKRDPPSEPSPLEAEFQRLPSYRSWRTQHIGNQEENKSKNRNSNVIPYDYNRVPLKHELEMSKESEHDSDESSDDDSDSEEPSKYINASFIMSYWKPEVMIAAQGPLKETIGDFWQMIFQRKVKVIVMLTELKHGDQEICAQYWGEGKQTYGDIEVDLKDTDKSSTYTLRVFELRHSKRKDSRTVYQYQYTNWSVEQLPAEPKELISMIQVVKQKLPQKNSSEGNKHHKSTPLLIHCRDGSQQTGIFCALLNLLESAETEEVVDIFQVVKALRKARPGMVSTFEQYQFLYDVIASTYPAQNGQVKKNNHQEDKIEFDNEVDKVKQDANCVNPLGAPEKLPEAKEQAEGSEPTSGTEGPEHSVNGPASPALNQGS
Experimental: as §1

LAR = target: T3, LAR (Homo sapiens, UniProt P10586); assay: as above; format: biochemical; conditions: pH 5.5; D1D2; read-out: Ki values, LAR D1D2
T3 sequence (P10586 1285-1907 limits assumed): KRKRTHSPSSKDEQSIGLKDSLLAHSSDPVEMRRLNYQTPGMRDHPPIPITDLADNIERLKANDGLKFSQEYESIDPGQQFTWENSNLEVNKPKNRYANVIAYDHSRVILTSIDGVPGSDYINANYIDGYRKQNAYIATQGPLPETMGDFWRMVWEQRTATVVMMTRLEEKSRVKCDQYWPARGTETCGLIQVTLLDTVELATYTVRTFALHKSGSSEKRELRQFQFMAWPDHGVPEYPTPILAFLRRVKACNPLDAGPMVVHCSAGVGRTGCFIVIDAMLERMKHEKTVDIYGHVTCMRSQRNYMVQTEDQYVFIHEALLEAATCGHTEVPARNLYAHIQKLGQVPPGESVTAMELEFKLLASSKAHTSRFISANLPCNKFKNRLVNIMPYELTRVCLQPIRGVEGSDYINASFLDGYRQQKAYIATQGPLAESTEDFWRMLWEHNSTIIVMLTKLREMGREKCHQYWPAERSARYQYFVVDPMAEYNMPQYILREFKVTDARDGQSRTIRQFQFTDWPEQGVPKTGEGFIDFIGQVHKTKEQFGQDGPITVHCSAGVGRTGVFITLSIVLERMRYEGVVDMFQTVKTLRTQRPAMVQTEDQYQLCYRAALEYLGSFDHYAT

PTPα = target: T4, PTPα (Homo sapiens, UniProt P18433); assay: as above; format: biochemical
T4 construct: PTPα D1

SHP-1 = SHP-1 (Homo sapiens, UniProt P29350); assay: biochemical
PTP1B = target: T5, PTP1B (Homo sapiens, UniProt P18031); assay: PTPase inhibition, p-nitrophenyl phosphate substrate, Ki; format: biochemical
T5 sequence (P18031 1-321): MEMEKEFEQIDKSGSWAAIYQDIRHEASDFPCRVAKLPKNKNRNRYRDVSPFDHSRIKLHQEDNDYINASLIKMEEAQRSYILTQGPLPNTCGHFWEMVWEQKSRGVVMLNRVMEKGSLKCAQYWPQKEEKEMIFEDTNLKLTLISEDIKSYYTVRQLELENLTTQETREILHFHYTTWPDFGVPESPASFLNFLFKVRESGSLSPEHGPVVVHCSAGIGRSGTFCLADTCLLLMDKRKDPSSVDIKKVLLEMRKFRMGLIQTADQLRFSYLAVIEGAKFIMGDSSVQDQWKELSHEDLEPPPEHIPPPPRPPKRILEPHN
Experimental: as §1

[1] = pKa of the tetrahydropyridine ring; format: physicochemical; conditions: positively charged tetrahydropyridine ring
[2] = pH 5.5, D1, read-out: Ki values, PTPε D1
[3] = pH 5.5, read-out: Ki values, PTPβ
[4] = pH 5.5, D1, read-out: Ki values, PTPα D1
[5] = pH 5.5, read-out: Ki values, PTP1B
[6] = pH 7, D1 (Table 3), read-out: Ki values, PTPα D1
[7] = pH 7, D1 (Table 3), read-out: Ki values, PTPε D1
[8] = pH 7 (Table 3), read-out: Ki values, PTPβ
[9] = pH 7 (Table 6), read-out: Ki, PTP1B residue 48 Asp
[10] = pH 7 (Table 6), read-out: Ki, PTP ε residue 48 Asn
[11] = pH 7 (Table 6), read-out: Ki, PTP β residue 48 Asn
[12] = pH 7 (Table 6), read-out: Ki, PTP α residue 48 Asn

T4 sequence (P18433 241-501 limits assumed): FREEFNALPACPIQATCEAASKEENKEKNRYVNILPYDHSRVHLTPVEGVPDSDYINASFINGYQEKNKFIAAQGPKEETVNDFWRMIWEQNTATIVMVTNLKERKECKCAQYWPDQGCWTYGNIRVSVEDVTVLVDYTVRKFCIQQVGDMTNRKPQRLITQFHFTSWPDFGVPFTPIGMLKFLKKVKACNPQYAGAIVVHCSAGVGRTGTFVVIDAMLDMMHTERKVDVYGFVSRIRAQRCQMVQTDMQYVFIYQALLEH
Chain of SHP-1 (P29350 whole entry): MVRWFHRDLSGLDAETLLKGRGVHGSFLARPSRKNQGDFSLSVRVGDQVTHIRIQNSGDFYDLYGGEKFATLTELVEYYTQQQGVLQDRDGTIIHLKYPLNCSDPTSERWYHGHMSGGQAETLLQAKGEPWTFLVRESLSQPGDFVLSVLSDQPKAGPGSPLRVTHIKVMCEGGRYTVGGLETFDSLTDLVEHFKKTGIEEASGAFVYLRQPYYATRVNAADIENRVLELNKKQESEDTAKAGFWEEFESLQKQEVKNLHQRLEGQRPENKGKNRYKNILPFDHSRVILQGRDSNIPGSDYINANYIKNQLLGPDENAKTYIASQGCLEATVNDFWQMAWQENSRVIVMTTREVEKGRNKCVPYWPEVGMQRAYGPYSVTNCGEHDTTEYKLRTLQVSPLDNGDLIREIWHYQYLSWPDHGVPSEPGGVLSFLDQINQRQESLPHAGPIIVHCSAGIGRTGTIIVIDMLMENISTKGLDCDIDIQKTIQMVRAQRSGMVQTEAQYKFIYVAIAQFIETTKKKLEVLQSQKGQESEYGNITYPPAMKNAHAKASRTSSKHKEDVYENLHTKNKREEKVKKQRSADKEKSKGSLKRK
Chain of PTPβ (P23467 1703-1963 limits assumed): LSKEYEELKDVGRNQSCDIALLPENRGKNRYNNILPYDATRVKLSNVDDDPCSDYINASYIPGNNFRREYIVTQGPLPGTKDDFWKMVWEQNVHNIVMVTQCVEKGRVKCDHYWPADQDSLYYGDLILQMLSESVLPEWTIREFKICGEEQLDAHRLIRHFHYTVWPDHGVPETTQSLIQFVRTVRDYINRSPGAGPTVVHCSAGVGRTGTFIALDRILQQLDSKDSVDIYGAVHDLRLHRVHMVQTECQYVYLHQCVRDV
T1 sequence (P23469 135-394 limits assumed): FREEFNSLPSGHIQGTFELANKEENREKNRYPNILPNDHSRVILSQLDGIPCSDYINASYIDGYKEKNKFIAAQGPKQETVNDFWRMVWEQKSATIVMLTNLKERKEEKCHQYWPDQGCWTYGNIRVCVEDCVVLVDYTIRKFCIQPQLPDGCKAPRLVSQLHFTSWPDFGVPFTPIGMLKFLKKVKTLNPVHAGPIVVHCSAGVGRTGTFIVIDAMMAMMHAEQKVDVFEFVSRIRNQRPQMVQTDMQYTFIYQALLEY

Ki (PTPε; [2])	Ki (PTPβ; [3])	Ki (CD45; pH 5.5, D1D2)	Ki (LAR)	Ki (PTPα; [4])	Ki (SHP-1)	Ki (PTP1B; [9])	Ki (PTPβ; [11])	SMILES	further results
45 µM	14 µM	40 µM	400 µM	300 µM	120 µM	–	–	O=C(O)C(=O)Nc1sc2c(c1C(=O)O)CCCC2 [Example 2-OBTA]	–
–	–	–	–	270 µM	–	–	–	O=C(O)C(=O)Nc1sc2c(c1C(=O)O)CCOC2 [Example 2-OTPA, 2-(Oxalyl-amino)-4,7-dihydro-thieno[2,3-c]pyran-3-carboxylic acid]	Ki (PTPα; [6]): 1100 µM
600 µM	150 µM	110 µM	> 2000 µM	> 2000 µM	900 µM	–	–	O=C(O)C(=O)Nc1sc2c(c1C(=O)O)CCNC2 [Example 2-OTPyA, 2-(Oxalyl-amino)-4,5,6,7-tetrahydro-thieno[2,3-c]pyridine-3-carboxylic acid]	Ki (PTP1B; [5]): 0.3 µM; pKa [1]: > 10
–	–	–	–	–	–	0.07 µM	8 µM	O=C(O)C(=O)Nc1sc2c(c1C(=O)O)C[C@@H](CN1C(=O)c3ccccc3C1=O)NC2 [Example 50, (L)-5-(1,3-Dioxo-1,3-dihydro-isoindol-2-ylmethyl)-2-(oxalyl-amino)-4,5,6,7-tetrahydro-thieno[2,3-c]pyridine-3-carboxylic acid]	Ki (PTPα; [12]): 1000 µM
125 µM	32 µM	160 µM	> 2000 µM	700 µM	530 µM	–	–	O=C(O)C(=O)Nc1ccccc1C(=O)O [OBA, 2-(oxalyl-amino)-benzoic acid]	–

Second part, the molecule before the results:

SMILES	Ki (PTPε; [2])	Ki (PTPβ; [3])	Ki (CD45; pH 5.5, D1D2)	Ki (LAR)	Ki (PTPα; [4])	Ki (SHP-1)	Ki (PTP1B; [9])	Ki (PTPβ; [11])	further results
O=C(O)C(=O)Nc1sccc1C(=O)O [Example 2-OTA, 2-(oxalyl-amino)-thiophene-3-carboxylic acid]	590 µM	18 µM	70 µM	> 2000 µM	1700 µM	60 µM	–	–	Ki (PTP1B; [5]): 62 µM
O=C(O)C(=O)Nc1ccsc1C(=O)O [Example 3-OTA, 3-(oxalyl-amino)-thiophene-2-carboxylic acid]	350 µM	160 µM	250 µM	> 2000 µM	500 µM	> 2000 µM	–	–	Ki (PTP1B; [5]): 61 µM
O=C(O)C(=O)Nc1sc2c(c1C(=O)O)CC(CN1C(=O)c3cccc(O)c3C1=O)OC2 (centres unmarked) [Example 4, 5-(4-Hydroxy-1,3-dioxo-1,3-dihydro-isoindol-2-ylmethyl)-2-(oxalyl-amino)-4,7-dihydro-5H-thieno[2,3-c]pyran-3-carboxylic acid]	–	–	–	–	–	–	–	–	Ki (PTP1B; pH 7 (Table 3), read-out: Ki values, PTP1B): 1.9 µM; Ki (PTPε; [7]): 11 µM; Ki (PTPβ; [8]): 1.1 µM; Ki (CD45; pH 7, D1D2 (Table 3)): 130 µM; Ki (PTPα; [6]): 93 µM
COc1ccc2c(c1)C(=O)N(CC1OCCc3c1sc(NC(=O)C(=O)O)c3C(=O)O)C2=O (centres unmarked) [Example 26, 7-(5-Methoxy-1,3-dioxo-1,3-dihydro-isoindol-2-ylmethyl)-2-(oxalyl-amino)-4,7-dihydro-5H-thieno[2,3-c]pyran-3-carboxylic-acid]	–	–	–	–	–	–	–	–	Ki (PTPε; [7]): 330 µM; Ki (PTPβ; [8]): 8.9 µM; Ki (CD45; pH 7, D1D2 (Table 3)): 380 µM; Ki (PTPα; [6]): 620 µM
CCOC(=O)N1Cc2sc(NC(=O)C(=O)O)c(C(=O)O)c2CC1CN1C(=O)c2ccccc2C1=O (centres unmarked) [Example 48, 5-(1,3-Dioxo-1,3-dihydro-isoindol-2-ylmethyl)-2-(oxalyl-amino)-4,5,6,7-tetrahydro-thieno[2,3-c]pyridine-3,6-dicarboxylic acid 6-ethyl ester]	–	–	–	–	–	–	0.25 µM	47 µM	Ki (PTPε; [10]): 380 µM; Ki (PTPα; [12]): 900 µM
O=C(O)C(=O)Nc1sc2c(c1C(=O)O)CC(CN1C(=O)c3ccccc3C1=O)NC2 (centres unmarked) [Example 49, 5-(1,3-Dioxo-1,3-dihydro-isoindol-2-ylmethyl)-2-(oxalyl-amino)-4,5,6,7-tetrahydro-thieno[2,3-c]pyridine-3-carboxylic acid]	–	–	–	–	–	–	0.085 µM	8.6 µM	–
O=C(O)C(=O)Nc1sc2c(c1C(=O)O)CC(CN1C(=O)c3cccc(O)c3C1=O)NC2 (centres unmarked) [Example 52, 5-(4-Hydroxy-1,3-dioxo-1,3-dihydro-isoindol-2-ylmethyl)-2-(oxalyl-amino)-4,5,6,7-tetrahydro-thieno[2,3-c]pyridine-3-carboxylic acid]	–	–	–	–	–	–	1.2 µM	107 µM	fold increase of affinity for PTP1B compared to 2-OTPyA (PTP1B): about 13 fold; Ki (PTPε; [10]): > 500 µM; Ki (PTPα; [12]): > 400 µM
